# Tests used:
# [1] = system: Ac-α-tubulin in HeLa cells; experiment: Immunofluorescence assay, Ac-α-tubulin; format: cell-based; details: 6 h
# [2] = target: T1, full-length hHDAC6 (Homo sapiens, UniProt Q9UBN7); experiment: EMSA activity-based inhibition assay, HDAC6; format: biochemical; details: for fold improvement of potency on moving the fluorine substituent: ortho- and meta-fluoro versus parent analog, selectivity was lost
# T1 sequence (Q9UBN7 1-1215): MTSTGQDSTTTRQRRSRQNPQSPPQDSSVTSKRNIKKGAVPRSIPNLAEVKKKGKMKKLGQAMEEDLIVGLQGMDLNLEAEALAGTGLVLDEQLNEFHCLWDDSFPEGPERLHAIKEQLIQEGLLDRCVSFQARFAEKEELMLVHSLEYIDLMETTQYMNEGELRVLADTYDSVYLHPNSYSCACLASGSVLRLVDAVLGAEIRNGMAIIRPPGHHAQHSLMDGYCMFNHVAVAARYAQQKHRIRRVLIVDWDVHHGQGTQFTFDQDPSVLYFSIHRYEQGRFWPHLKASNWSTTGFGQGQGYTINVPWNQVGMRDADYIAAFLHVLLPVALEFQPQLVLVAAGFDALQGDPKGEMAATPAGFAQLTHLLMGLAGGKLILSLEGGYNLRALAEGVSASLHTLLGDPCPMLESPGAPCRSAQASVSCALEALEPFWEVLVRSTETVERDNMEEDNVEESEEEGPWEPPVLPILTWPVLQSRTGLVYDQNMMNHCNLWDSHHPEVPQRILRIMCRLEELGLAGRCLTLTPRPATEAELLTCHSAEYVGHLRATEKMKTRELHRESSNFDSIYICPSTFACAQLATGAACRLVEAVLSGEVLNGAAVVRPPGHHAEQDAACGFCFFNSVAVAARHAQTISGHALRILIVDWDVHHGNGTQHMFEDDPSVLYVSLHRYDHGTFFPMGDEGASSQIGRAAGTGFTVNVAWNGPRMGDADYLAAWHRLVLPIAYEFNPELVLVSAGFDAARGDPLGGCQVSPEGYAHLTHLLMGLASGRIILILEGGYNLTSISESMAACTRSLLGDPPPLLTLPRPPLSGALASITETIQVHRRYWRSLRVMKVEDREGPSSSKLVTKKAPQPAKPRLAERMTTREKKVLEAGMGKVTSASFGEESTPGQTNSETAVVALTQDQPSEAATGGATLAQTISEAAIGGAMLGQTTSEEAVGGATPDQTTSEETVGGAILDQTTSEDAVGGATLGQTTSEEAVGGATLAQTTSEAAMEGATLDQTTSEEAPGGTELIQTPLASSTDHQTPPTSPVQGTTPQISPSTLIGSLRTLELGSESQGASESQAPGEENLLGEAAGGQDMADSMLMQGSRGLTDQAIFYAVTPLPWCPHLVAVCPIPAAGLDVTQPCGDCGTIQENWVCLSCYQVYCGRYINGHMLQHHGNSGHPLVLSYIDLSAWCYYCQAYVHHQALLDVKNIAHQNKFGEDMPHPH
# [3] = target: T2, drHDAC6 CD2 (Danio rerio, UniProt F8W4B7); experiment: Fluorescence polarization; format: binding, Danio rerio (zebrafish); details: orthogonal fluorescence polarization assay
# T2 sequence (F8W4B7 440-798 limits assumed): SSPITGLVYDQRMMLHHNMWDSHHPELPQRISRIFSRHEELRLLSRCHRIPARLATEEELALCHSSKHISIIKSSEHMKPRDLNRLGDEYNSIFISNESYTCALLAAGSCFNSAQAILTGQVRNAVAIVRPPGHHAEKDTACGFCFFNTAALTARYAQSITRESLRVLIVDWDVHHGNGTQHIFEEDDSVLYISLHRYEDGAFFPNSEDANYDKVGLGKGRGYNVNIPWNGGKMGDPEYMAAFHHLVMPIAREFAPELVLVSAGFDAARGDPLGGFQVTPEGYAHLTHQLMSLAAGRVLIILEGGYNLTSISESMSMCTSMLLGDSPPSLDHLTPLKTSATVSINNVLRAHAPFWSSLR
# [4] = system: six leukemic cancer cells; experiment: Cytotoxicity assay; format: cell-based; details: 72 h, read-out: average anti-proliferative IC50
# [5] = system: Ac-histone H3 in MV4–11 cells; experiment: Western blot of Ac-histones; format: cell-based
# [6] = target: T3, HDAC6 (Homo sapiens, UniProt Q9UBN7); experiment: Intact mass spectrometry analysis of the enzyme; details: intact mass spectrometry on treatment with compound
# T3 sequence (Q9UBN7 1-1215): T1 sequence (Q9UBN7 1-1215)
# [7] = system: MV4–11 cells; experiment: Detection of ROS generation; format: cell-based; details: MV4–11, 10 μM, up to 4 h, versus DMSO control
# [8] = Pooled human whole blood stability assay; format: in vitro ADME; details: triplicate
# [9] = system: Ac-α-tubulin in MV4–11 cells; experiment: Western blot of Ac-α-tubulin; format: cell-based
# [10] = Mouse plasma stability assay; format: in vitro ADME; details: triplicate
# [11] = system: MV4–11 cells; experiment: FACS apoptosis detection assay; format: cell-based
# [12] = system: Ac-histone in HeLa cells; experiment: Immunofluorescence assay, Ac-histone; format: cell-based; details: 0.1 μM or 2 μM, 6 h
# [13] = system: 'normal' MRC9 lung fibroblasts; experiment: Cytotoxicity assay; format: cell-based; details: 72 h
smiles,measurement,setting,value
"O=C(CCCCCCNC(=O)c1cnc(N(c2ccccc2)c2ccccc2Cl)nc1)NO [Citarinostat, reference compound]",accumulation of Ac-α-tubulin (red stain) at 2 μM,[1],slightly less prominent
O=C(NO)c1ccc(CN(Cc2ccncc2)S(=O)(=O)c2c(F)c(F)c(F)c(F)c2F)cc1 [Compound 8],HDAC6 selectivity,[2]; against 4 representative HDAC homologs (Table 1),> 71 fold
O=C(NO)c1ccc(CN(Cc2cccc(F)c2)S(=O)(=O)c2cc(F)c(F)c(F)c2F)cc1 [Compound 12],fold improvement of potency on moving the fluorine substituent,[2],2 fold
O=C(NO)c1ccc(CN(Cc2ccccc2F)S(=O)(=O)c2cc(F)c(F)c(F)c2F)cc1 [Compound 13],fold improvement of potency on moving the fluorine substituent,[2],2 fold
O=C(NO)c1ccc(CN(Cc2ccccn2)S(=O)(=O)c2cc(F)c(F)c(F)c2F)cc1 [Compound 14],fold more potent against HDAC6 compared to 9,[2]; relative to 9,2 fold
O=C(NO)c1ccc(CN(Cc2cccnc2)S(=O)(=O)c2cc(F)c(F)c(F)c2F)cc1 [TO-317],potency of interaction with drHDAC6 CD2 (FP),[3],4 nM
same,IC50,[4],< 2000 nM
same,Ac-histones accumulation,"[5]; MV4–11 cells, at 0.25 μM, 6 hours",minimal accumulation
same,concentration required to observe distinct acetylation of H3 histone,[5]; cells not given,~ 0.75 μM
same,covalent modification of the enzyme,[6],no covalent modification of the enzyme was observed
same,accumulation of Ac-α-tubulin (red stain) at 2 μM,[1],significant accumulation
same,ROS generation,[7],markedly increased levels of ROS after 2 h incubation
same,"Remaining percentage concentration, 0 min",[8],100%
same,Ac-α-tubulin levels at 0.25 μM,"[9]; MV4–11 cells, 0.25 μM, 6 hours",significant increase
same,lowest concentration giving preferential increase in acetylated α-tubulin,"[9]; dose-dependent, cells not given",50 nM
same,"Remaining percentage concentration, 0 min",[10],100%
same,"early and late apoptotic cell populations, combined","[11]; MV4–11, 0.25 μM",11%
same,"early and late apoptotic cell populations, combined","[11]; MV4–11, 2 μM",65%
same,"early and late apoptotic cell populations, combined","[11]; MV4–11, 4 μM",73%
same,necrosis (UL sub-population),"[11]; MV4–11, across the range of concentrations tested, versus DMSO control",does not show statistically different changes to necrosis
same,levels of Ac-histone (green stain),[12],do not change significantly
same,activity in normal cells,[13],minimal activity
